Data taken from patent US12544372B2, “Methods of treating rheumatoid arthritis, chronic spontaneous urticaria, and systemic lupus erythematosis using an inhibitor of Bruton's tyrosine kinase” (Genentech, Inc., priority 2019, dated 2026).
Marks after values point to notes of the source that are not given here.

How the values were obtained:
[1] = tested on: CCL4; assay: RA study biomarker: CCL4 (immunoassay); assay type: in vivo, human
Description: […] The biomarkers evaluated in this assessment were chemokine [C-C motif] ligand 4 (CCL4), IL-6, and TNF-like cytokine 1A (TL1A). Total IgM, IgG, rheumatoid factor IgM autoantibody (RF), CCL4, TL1A, IL-6, and anti-CCP autoantibody (ACPA IgG) levels were analyzed with immunoassays. CD19^+ B cells and CD3^+ T cells were measured by flow cytometry. The proportion of patients achieving an ACR50 response at week 12 and the change in DAS28 score by week 12 were assessed relative to seropositivity (RF and/or ACPA positive at baseline) or baseline levels of RF in both cohorts. To select which biomarkers to evaluate in this trial, BTK-dependent myeloid biomarkers were identified using peripheral blood CD14^+ monocytes stimulated with immune-complexes in the presence or absence of a BTK inhibitor. In brief, the expression levels of genes in human monocytes were assayed under conditions of no stimulation; with human serum albumin immune complex stimulation; with stimulation and a low concentration of a BTK inhibitor with similar characteristics to fenebrutinib; or with stimulation and a high concentration of the BTK inhibitor. […] Genes annotated with cytokine activity were selected. The color bar represents normalized gene expression.

[2] = tested on: patients with moderate to severe active SLE; assay: Phase II SLE study: clinical efficacy (SRI-4, BICLA and components); assay type: in vivo, human; details: for BILAG at W48, Change from baseline, Absence of new A and >1 new B domains / PGA at W48, Change from baseline / SLEDA at W48, Reduction from baseline ≤4 points: last observation carried forward; for SRI-4 responders at Week 24: interim analysis
Text: A Phase II, Randomized, Double-Blind, Placebo-Controlled Study of the Safety and Efficacy of Fenebrutinib in Patients with Moderate to Severe Active Systemic Lupus Erythematosus
This study was designed to evaluate the efficacy and safety of fenebrutinib in combination with standard-of-care (SOC) therapy compared with placebo in patients with moderate to severe active SLE. This study enrolled 260 patients from 44 sites in 12 countries. Specific objectives and corresponding endpoints for the study are outlined below.
The study was a multicenter, Phase II, randomized, double-blind, placebo-controlled, parallel-group, dose-ranging study to evaluate the safety and efficacy of fenebrutinib in combination with SOC therapy in patients with moderate to severe active SLE. Moderate to severe SLE was defined at screening and baseline (i.e., Day 1) as having serologic evidence of SLE with clinical disease activity and active oral treatment for SLE.
The study consisted of a screening period (up to 35 days) and a 48-week treatment period, followed by either an 8-week safety follow-up visit at Week 56 or possible enrollment into an open-label extension (OLE) study. Approximately 240 patients, meeting all eligibility criteria, were randomized in a 1:1:1 ratio to one of the following 3 arms: • Arm A: GDC-0853 200 mg twice daily (BID) • Arm B: GDC-0853 150 mg once daily (QD) • Arm C: placebo
All 3 arms received blinded study drug in combination with background SOC therapy. Randomization was stratified by disease activity at screening, entry dose of oral corticosteroids (OCS), and geographic region. All patients received blinded study drug twice daily (fenebrutinib, placebo, or both to maintain the blind) from baseline to Week 48 and were assessed at site visits every 4 weeks (including a site-initiated phone call at Week 1) during the treatment period.
Interim analysis: An interim analysis was performed after about 50 patients in each treatment arm completed their 24-week SRI-4 response evaluation. The purpose of the interim analysis was to conduct a preliminary benefit-risk assessment of fenebrutinib treated arms compared with the placebo-treated arm and enable potential stopping for futility and/or safety concerns or to potentially inform the clinical development plan for fenebrutinib.
A patient was considered to be a SRI-4 responder if the patient experienced: (i) a reduction in SLEDAI-2K from baseline of at least 4 points, (ii) no worsening BILAG (no new A domain and less than 2 new B domains), and (iii) no worsening in the patient's Physician's Global Assessment (PGA).

[3] = tested on: CD19+ B cells; assay: SLE study biomarker: CD19+ B cells; assay type: in vivo, human
Description: The following biomarkers were explored according to the biomarker objectives provided above in the Study Objectives. In Table 13, biomarkers are measured at baseline and subsequent timepoints during and after treatment. One set of biomarkers evaluated is the plasmablast signature. Plasmablasts are rapidly dividing, short-lived antibody secreting cells. While they represent a small proportion of B cells in the blood, they are responsible for a majority of antibody transcripts found in whole blood mRNA. The plasmablast signature comprises the biomarkers IgJ, Mzbl, and Txndc5. The gene expression of IgJ, Mzbl, and Txndc5 may be measured, for example, a polypeptide expression by evaluating the level of mRNA for said gene in a patient's blood relative to a reference level.

[4] = Phase II SLE study: safety
Description: The safety objective for this study was to evaluate the safety of fenebrutinib given in combination with SOC in patients with moderate to severe active SLE.
An unblinded IMC and Scientific Oversight Committee is used to monitor multiple safety assessments.

For C[C@H]1CN(C2COC2)CCN1c1ccc(Nc2cc(-c3ccnc(N4CCn5c(cc6c5CC(C)(C)C6)C4=O)c3CO)cn(C)c2=O)nc1 [fenebrutinib, (S)-2-(3′-(hydroxymethyl)-1-methyl-5-((5-(2-methyl-4-(oxetan-3-yl)piperazin-1-yl)pyridin-2-yl)amino)-6-oxo-1,6-dihydro-[3,4′-bipyridin]-2′-yl)-7,7-dimethyl-2,3,4,6,7,8-hexahydro-1H-cyclopenta[4,5]pyrrolo[1,2-a]pyrazin-1-one], the “CCL4 Reduction as % of Baseline” value ([1]; Cohort 1, 50 mg QD, Week 2) was 78%*, the “CCL4 Reduction as % of Baseline” value ([1]; Cohort 1, 50 mg QD, Week 4) was 84%* and the “CCL4 Reduction as % of Baseline” value ([1]; Cohort 1, 50 mg QD, Week 12) was 78%*. The “CCL4 Reduction as % of Baseline” value ([1]; Cohort 1, 150 mg QD, Week 2) was 73%*, the “CCL4 Reduction as % of Baseline” value ([1]; Cohort 1, 150 mg QD, Week 4) was 79%* and the “CCL4 Reduction as % of Baseline” value ([1]; Cohort 1, 150 mg QD, Week 12) was 86%*. The “CCL4 Reduction as % of Baseline” value ([1]; Cohort 1, 200 mg BID, Week 2) was 71%*, the “CCL4 Reduction as % of Baseline” value ([1]; Cohort 1, 200 mg BID, Week 4) was 74%* and the “CCL4 Reduction as % of Baseline” value ([1]; Cohort 1, 200 mg BID, Week 12) was 76%*. The “CCL4 reduction relative to placebo” value ([1]; cohort 1, 200 mg twice daily, largest reduction) was −28%, the “CCL4 levels compared to placebo” value ([1]; cohorts 1 and 2, all doses, by week 1) was “reduced CCL4 levels” and the “BICLA Response at W48, Treatment difference vs. PBO” value ([2]; 150 mg QD) was 11.7%. For the same compound, the “BILAG at W48, Treatment difference vs. PBO” value ([2]; 150 mg QD) was 0.0%, the “PGA at W48, Treatment difference vs. PBO” value ([2]; 150 mg QD) was −2.3% and the “SLEDA at W48, Treatment difference vs. PBO” value ([2]; 150 mg QD) was 6.1%. The “SRI-4 Response at W48, Treatment difference vs. PBO” value ([2]; 150 mg QD) was 6.4%, the “SRI-4 Response at W48, Responder” value ([2]; 150 mg QD (n = 87)) was 44 (51) n (%) and the “BILAG at W48, Change from baseline, Absence of new A and >1 new B domains” value ([2]; 150 mg QD) was 84 (97) n (%). The “PGA at W48, Change from baseline” value ([2]; 150 mg QD) was 82 (94) n (%), the “SLEDA at W48, Reduction from baseline ≤4 points” value ([2]; 150 mg QD) was 68 (78) n (%) and the “BICLA Response at W48, Treatment difference vs. PBO” value ([2]; 200 mg BID) was 0.9%. For the same compound, the “BILAG at W48, Treatment difference vs. PBO” value ([2]; 200 mg BID) was 0.0%, the “PGA at W48, Treatment difference vs. PBO” value ([2]; 200 mg BID) was −1.1% and the “SLEDA at W48, Treatment difference vs. PBO” value ([2]; 200 mg BID) was 8.4%. The “SRI-4 Response at W48, Treatment difference vs. PBO” value ([2]; 200 mg BID) was 7.5%, the “SRI-4 Response at W48, Responder” value ([2]; 200 mg BID (n = 87)) was 45 (52) n (%) and the “BILAG at W48, Change from baseline, Absence of new A and >1 new B domains” value ([2]; 200 mg BID) was 84 (97) n (%). For the same compound, the “PGA at W48, Change from baseline” value ([2]; 200 mg BID) was 83 (95) n (%), the “SLEDA at W48, Reduction from baseline ≤4 points” value ([2]; 200 mg BID) was 70 (81) n (%) and the “SRI-4 responders at Week 24” value ([2]; 150 mg QD arm (46% of placebo patients)) was 49%. The “SRI-4 responders at Week 24” value ([2]; 200 mg BID arm (46% of placebo patients)) was 57%, the BICLA response rate ([2]; week 48, 150 mg QD (41% placebo arm)) was 53% and the SRI-4 response rate ([2]; week 48, 150 mg QD (44% placebo arm)) was 51%. The BICLA response rate ([2]; week 48, 200 mg BID (41% placebo arm)) was 42%, the SRI-4 response rate ([2]; week 48, 200 mg BID (44% placebo arm)) was 52% and the “CD19+ B cells, Median Change from Baseline at Week 48” value ([3]; 150 mg QD) was −57.0* cells/μl. The “CD19+ B cells, Median Change from Baseline at Week 48” value ([3]; 200 mg BID) was −57.5* cells/μl, the “Total number of patients with at least one AE” value ([4]; 150 mg QD) was 77 (89) n (%) and the “Total number of patients with at least one AE leading to death” value ([4]; 150 mg QD) was 1 (1) n (%). For the same compound, the “Total number of patients with at least one Serious AE” value ([4]; 150 mg QD) was 4 (5) n (%), the “Total number of patients with at least one AE” value ([4]; 200 mg BID) was 68 (77) n (%) and the “Total number of patients with at least one AE leading to death” value ([4]; 200 mg BID) was 0 n (%). For the same compound, the “Total number of patients with at least one Serious AE” value ([4]; 200 mg BID) was 12 (14) n (%), the “ALT and AST elevations” value ([4]; interim analysis, 200 mg BID arm, some patients) was “signs of ALT and AST elevations” and the safety and tolerability ([4]; interim analysis, each dose) was “safe and well tolerated”.
